{"source": "paper PMC6944674", "about": "“Comparison of the Hepatotoxic Potential of Two Treatments for Autosomal-Dominant Polycystic Kidney DiseaseUsing Quantitative Systems Toxicology Modeling” (Pharmaceutical Research, 2020)", "key": {"HepG2 cells [1]": {"system": "HepG2 cells", "experiment": "Seahorse XFe96 cellular respiration assay (oxygen consumption rate)", "format": "cell-based", "conditions": "24 hour incubation", "protocol": "To assess the potential effect of the five test articles on mitochondrial function, cellular respiration assays using a Seahorse XFe96 Flux Analyzer were conducted by Cyprotex (Macclesfield, UK) and overseen by the authors. HepG2 cells were incubated with each test article for 1 or 24 hours and tested for an effect on cellular respiration by measuring the oxygen consumption rate (OCR). Each study was conducted in triplicate. Importantly, the 1 hour culture was conducted in the absence of serum (i.e. no serum protein binding) as is standard for the Seahorse Analyzer assay conditions."}, "[2]": {"conditions": "90/30 mg, cited from earlier work"}, "human BSEP [3]": {"target": "T1, human BSEP (Homo sapiens, UniProt O95342)", "T1 construct": "host or cells: HEK-293 cell membrane vesicles", "T1 sequence (O95342 whole entry)": "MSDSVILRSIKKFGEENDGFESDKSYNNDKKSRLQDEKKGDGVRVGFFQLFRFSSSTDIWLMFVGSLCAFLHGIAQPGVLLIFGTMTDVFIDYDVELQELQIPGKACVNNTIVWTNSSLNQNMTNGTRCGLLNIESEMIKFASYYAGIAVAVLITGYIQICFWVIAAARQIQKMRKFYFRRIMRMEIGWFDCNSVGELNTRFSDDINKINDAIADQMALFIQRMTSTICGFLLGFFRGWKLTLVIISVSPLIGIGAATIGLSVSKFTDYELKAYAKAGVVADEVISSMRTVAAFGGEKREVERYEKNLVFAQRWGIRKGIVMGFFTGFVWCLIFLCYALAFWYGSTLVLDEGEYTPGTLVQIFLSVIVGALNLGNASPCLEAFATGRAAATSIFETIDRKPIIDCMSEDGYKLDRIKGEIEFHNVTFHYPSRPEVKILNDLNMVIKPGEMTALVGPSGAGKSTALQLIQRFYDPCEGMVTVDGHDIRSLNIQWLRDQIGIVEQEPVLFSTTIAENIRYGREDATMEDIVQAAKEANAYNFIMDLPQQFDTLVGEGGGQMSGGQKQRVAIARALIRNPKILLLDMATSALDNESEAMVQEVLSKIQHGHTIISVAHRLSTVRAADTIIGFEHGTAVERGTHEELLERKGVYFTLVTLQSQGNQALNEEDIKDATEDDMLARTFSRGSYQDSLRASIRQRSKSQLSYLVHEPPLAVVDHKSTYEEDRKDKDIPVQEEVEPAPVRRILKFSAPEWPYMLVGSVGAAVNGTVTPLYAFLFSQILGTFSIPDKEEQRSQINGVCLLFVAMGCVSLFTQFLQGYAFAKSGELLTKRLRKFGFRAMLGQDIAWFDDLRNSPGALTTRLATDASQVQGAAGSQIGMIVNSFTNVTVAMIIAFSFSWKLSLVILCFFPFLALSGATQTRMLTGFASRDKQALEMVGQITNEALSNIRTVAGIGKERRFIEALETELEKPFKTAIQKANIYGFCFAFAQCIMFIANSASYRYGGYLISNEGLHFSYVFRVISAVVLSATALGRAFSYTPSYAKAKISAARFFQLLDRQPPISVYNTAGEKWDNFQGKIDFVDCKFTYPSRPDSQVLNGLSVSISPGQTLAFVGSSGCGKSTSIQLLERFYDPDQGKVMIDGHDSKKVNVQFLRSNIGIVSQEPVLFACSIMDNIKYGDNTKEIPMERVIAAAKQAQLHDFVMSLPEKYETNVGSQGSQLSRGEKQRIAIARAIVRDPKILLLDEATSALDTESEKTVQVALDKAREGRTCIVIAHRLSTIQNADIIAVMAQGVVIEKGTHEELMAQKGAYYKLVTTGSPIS", "experiment": "BSEP vesicular transport inhibition assay (taurocholate, HEK-293 cell membrane vesicles)", "format": "biochemical", "protocol": "(§1) The functional impact of lixivaptan, its three metabolites and tolvaptan on the human ABC (efflux) transporters BSEP and MRP3 and MRP4 was assessed for this project using in vitro vesicular transport inhibition assays. The inhibition of the human SLC (uptake) transporter NTCP was assessed using CHO cells stably expressing human NTCP. The concentration ranges used for the five test articles was determined based on the solubility of each compound in the assay solution. All transporter inhibition assays were conducted in triplicate by Solvo Biotechnology (Szeged, Hungary).\nFor the simulation of bile acid transporter inhibition by lixivaptan in DILIsym, parameter values were selected for BSEP canalicular transport, basolateral transport (encompassing both MRP3 and MRP4), and NTCP transport. The parameter values for each include the inhibition constant, defined as the IC50 or Ki value, and the inhibition type, defined as competitive, non-competitive, or mixed inhibition.\nIn vesicular transport inhibition assays, lixivaptan and its metabolites each inhibited BSEP-mediated probe substrate accumulation (Figure B1) and MRP4-mediated probe substrate accumulation (Figure B2) dose-dependently.\nFigure B1. […] See Appendix A for more details."}, "human MRP3": {"target": "T2, human MRP3 (Homo sapiens, UniProt O15438)", "T2 construct": "host or cells: HEK-293 cell membrane vesicles", "T2 sequence (O15438 whole entry)": "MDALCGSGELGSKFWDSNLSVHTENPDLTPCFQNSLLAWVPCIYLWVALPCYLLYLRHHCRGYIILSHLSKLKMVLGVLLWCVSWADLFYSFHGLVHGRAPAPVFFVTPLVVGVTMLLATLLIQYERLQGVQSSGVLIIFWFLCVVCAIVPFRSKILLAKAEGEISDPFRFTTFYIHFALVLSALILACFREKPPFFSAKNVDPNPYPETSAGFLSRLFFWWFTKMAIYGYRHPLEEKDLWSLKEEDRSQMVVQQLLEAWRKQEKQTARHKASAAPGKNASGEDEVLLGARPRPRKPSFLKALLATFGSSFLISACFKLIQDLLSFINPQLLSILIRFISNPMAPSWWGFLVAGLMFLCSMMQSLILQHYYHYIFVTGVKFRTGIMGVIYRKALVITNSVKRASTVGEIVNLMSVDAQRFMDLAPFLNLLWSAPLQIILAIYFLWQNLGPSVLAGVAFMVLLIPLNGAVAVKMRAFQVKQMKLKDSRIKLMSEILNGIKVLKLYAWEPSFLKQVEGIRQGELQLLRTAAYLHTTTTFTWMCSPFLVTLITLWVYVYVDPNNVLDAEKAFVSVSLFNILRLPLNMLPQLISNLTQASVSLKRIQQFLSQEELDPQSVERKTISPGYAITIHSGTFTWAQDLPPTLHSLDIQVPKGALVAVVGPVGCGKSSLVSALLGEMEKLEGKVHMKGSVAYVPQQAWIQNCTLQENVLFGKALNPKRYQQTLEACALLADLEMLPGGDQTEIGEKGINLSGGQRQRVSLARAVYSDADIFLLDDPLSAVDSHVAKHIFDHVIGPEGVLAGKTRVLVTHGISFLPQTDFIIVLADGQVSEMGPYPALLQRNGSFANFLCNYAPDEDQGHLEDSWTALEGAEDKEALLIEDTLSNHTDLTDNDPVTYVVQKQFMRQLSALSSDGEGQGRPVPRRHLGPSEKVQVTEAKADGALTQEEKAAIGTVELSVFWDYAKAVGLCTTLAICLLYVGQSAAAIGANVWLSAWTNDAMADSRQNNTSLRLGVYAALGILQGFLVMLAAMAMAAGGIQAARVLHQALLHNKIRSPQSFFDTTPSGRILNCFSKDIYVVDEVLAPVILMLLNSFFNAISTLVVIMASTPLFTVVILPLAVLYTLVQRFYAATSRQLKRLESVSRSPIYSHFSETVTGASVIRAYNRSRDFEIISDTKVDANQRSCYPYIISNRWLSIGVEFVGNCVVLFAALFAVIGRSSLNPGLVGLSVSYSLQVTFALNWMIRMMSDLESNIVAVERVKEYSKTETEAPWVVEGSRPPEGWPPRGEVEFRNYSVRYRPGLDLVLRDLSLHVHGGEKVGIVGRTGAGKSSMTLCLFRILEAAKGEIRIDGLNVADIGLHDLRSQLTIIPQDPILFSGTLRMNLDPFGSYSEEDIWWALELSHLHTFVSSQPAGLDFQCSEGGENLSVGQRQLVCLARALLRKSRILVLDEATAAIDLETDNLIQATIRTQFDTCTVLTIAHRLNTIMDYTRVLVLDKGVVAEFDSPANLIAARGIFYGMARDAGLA", "experiment": "MRP3 vesicular transport inhibition assay (E217βG, HEK-293 cell membrane vesicles)", "format": "biochemical", "protocol": "as §1\nFigure B3. […] See Appendix A for more details."}, "[4]": {"system": "mitochondrial electron transport chain", "conditions": "intracellular concentrations not measured; cited from earlier work"}, "simulated individuals": {"system": "simulated individuals", "design": "method as in PMID 27655350", "conditions": "24 weeks, cited from earlier work; for Simulated ALT >3X ULN, frequency: 90/30 mg split daily dosing"}, "[5]": {"system": "mitochondrial electron transport chain", "experiment": "ETC inhibition parameter from MITOsym simulation of OCR data, translated to DILIsym", "conditions": "calculated from 24 h HepG2 OCR data and measured intracellular concentrations; lower = higher risk", "description": "The parameters calculated in this manner were then translated to DILIsym parameters using a conversion factor based on the relative activity of rotenone in the in vitro vs. in vivo environment (7)."}, "human NTCP": {"target": "T3, human NTCP (Homo sapiens, UniProt Q14973)", "T3 sequence (Q14973 1-349)": "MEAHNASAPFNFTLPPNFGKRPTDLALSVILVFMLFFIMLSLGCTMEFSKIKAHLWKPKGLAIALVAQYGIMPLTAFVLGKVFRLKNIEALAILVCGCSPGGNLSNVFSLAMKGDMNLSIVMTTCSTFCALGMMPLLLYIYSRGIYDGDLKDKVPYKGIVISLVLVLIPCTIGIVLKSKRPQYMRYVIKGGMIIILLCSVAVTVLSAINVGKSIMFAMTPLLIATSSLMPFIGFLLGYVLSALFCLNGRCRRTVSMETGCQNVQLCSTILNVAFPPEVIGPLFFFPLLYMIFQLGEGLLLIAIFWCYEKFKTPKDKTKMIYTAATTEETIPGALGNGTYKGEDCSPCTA", "experiment": "NTCP inhibition in CHO cells stably expressing human NTCP (taurocholate)", "format": "cell-based", "conditions": "CHO cells", "protocol": "as §1\nFigure B4. […] See Appendix A for more details."}, "human BSEP [6]": {"target": "T1, human BSEP", "design": "method as in earlier work", "conditions": "ref (7); read-out: BSEP Ki used in DILIsym simulations previously; cited from earlier work"}, "[7]": {"experiment": "Intracellular concentration by LC/MS/MS in HepG2 cultures parallel to Seahorse assay", "format": "in vitro ADME", "conditions": "human, HepG2 cells, Seahorse medium", "protocol": "(§2) The concentration of test compound at the site of action (i.e. hepatocytes) has been identified as highly influential in the selection of parameter values (7). To assess intracellular concentrations of the five test articles, identical HepG2 cultures were established in parallel and cell lysate concentrations of the test articles were measured by LC/MS/MS analysis. Intracellular concentrations of the test articles were calculated by correcting for cell lysate volume (100 µL) and the volume of HepG2 cells in each well, which was calculated by multiplying cell count per well by cellular volume per cell (2.85 pl/cell). One independent study in duplicate was conducted to assess intracellular concentrations of the test articles for Seahorse studies."}, "HepG2 cells [8]": {"system": "HepG2 cells", "experiment": "Intracellular concentration by LC/MS/MS in HepG2 cultures parallel to Seahorse assay", "format": "in vitro ADME", "conditions": "Seahorse medium; for CIntracellular Fraction: cell lysate; for CHepatocyte: corrected for lysate and HepG2 cell volume", "protocol": "as §2"}}, "note": "Values joined by “and” are separate entries in the source; they are usually repeats but may differ in a detail not shown here. Identical values can stand only once. Like-named read-outs stand apart in the source and are kept apart here."}
{"smiles": "Cc1ccccc1C(=O)Nc1ccc(C(=O)N2CCCC(O)c3cc(Cl)ccc32)c(C)c1", "note": "(centres unmarked) [Tolvaptan, tolvaptan, reference compound]", "values": [{"measurement": "effect on HepG2 oxygen consumption rate (mitochondrial respiration)", "setting": "HepG2 cells [1]", "value": "reduce the HepG2 OCR in a dose-dependent manner"}, {"measurement": "Clinical Hy's Law Cases", "setting": "[2]; ADPKD", "value": "Yes"}, {"measurement": "Clinical ALT >3X ULN, frequency", "setting": "[2]; treated ADPKD patients", "value": "4.4% and 5.6%"}, {"measurement": "IC50", "setting": "human BSEP [3]; read-out: BSEP inhibition constant (IC50)", "value": 16.5, "unit": "µM"}, {"measurement": "inhibition of BSEP-mediated probe substrate accumulation", "setting": "human BSEP [3]; vesicular transport inhibition assay", "value": "inhibited"}, {"measurement": "inhibition of MRP3-mediated probe substrate accumulation", "setting": "human MRP3", "value": "inhibited"}, {"measurement": "Coefficient for ETC inhibition (DILIsym parameter) used in previously published research", "setting": "[4]", "value": 1.09, "unit": "mM"}, {"measurement": "Simulated ALT >3X ULN, frequency", "setting": "simulated individuals", "value": 7.86, "unit": "%"}, {"measurement": "Simulated ALT >3X ULN, frequency", "setting": "simulated individuals; listed as tolvaptan", "value": 7.86, "unit": "%"}, {"measurement": "Simulated ALT >3X ULN", "setting": "simulated individuals; 90/30 mg", "value": "18/229"}, {"measurement": "Simulated Hy's Law Cases", "setting": "simulated individuals; 90/30 mg", "value": "Yes"}, {"measurement": "Coefficient for ETC inhibition (DILIsym parameter)", "setting": "[5]", "value": 729, "unit": "µM"}, {"measurement": "inhibition of NTCP-mediated probe substrate accumulation", "setting": "human NTCP", "value": "inhibited"}, {"measurement": "Ki", "setting": "human BSEP [6]", "value": 31.6, "unit": "µM"}, {"measurement": "Kp at 5 µM", "setting": "[7]; dose 5 µM", "value": 6.44}, {"measurement": "Kp at 10 µM", "setting": "[7]; dose 10 µM", "value": 3.44}, {"measurement": "Kp at 25 µM", "setting": "[7]; dose 25 µM", "value": 5.97}, {"measurement": "Kp at 40 µM", "setting": "[7]; dose 40 µM", "value": 5.7}, {"measurement": "CIntracellular Fraction", "setting": "HepG2 cells [8]; dose 0.1 µM", "value": 0, "unit": "µM"}, {"measurement": "CHepatocyte", "setting": "HepG2 cells [8]; dose 0.1 µM", "value": 0, "unit": "µM"}, {"measurement": "CIntracellular Fraction", "setting": "HepG2 cells [8]; dose 0.5 µM", "value": 0, "unit": "µM"}, {"measurement": "CHepatocyte", "setting": "HepG2 cells [8]; dose 0.5 µM", "value": 0, "unit": "µM"}, {"measurement": "CIntracellular Fraction", "setting": "HepG2 cells [8]; dose 1 µM", "value": 0, "unit": "µM"}, {"measurement": "CHepatocyte", "setting": "HepG2 cells [8]; dose 1 µM", "value": 0, "unit": "µM"}, {"measurement": "CIntracellular Fraction", "setting": "HepG2 cells [8]; dose 5 µM", "value": 0.0156, "unit": "µM"}, {"measurement": "CHepatocyte", "setting": "HepG2 cells [8]; dose 5 µM", "value": 32.20, "unit": "µM"}, {"measurement": "CIntracellular Fraction", "setting": "HepG2 cells [8]; dose 10 µM", "value": 0.0162, "unit": "µM"}, {"measurement": "CHepatocyte", "setting": "HepG2 cells [8]; dose 10 µM", "value": 34.40, "unit": "µM"}, {"measurement": "CIntracellular Fraction", "setting": "HepG2 cells [8]; dose 25 µM", "value": 0.0629, "unit": "µM"}, {"measurement": "CHepatocyte", "setting": "HepG2 cells [8]; dose 25 µM", "value": 149.2, "unit": "µM"}, {"measurement": "CIntracellular Fraction", "setting": "HepG2 cells [8]; dose 40 µM", "value": 0.0937, "unit": "µM"}, {"measurement": "CHepatocyte", "setting": "HepG2 cells [8]; dose 40 µM", "value": 227.9, "unit": "µM"}]}
